# Measurements reported in the supplement of paper PMC10307832.
# Tests used:
# Test in all cases: relative viability (nuclei count vs DMSO), 5 days (fraction); higher = more cells survive
# LCLC-97TM1 = tested on: LCLC-97TM1
# Procedure, shortened: (§1)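 Relative viability equals treated-well nuclei counts divided by vehicle-well nuclei counts. Counts came from 4× images of lung cancer cell lines grown in 1536-well plates for 5 days after pin-tool dosing on the day after seeding. Dosing used one drug alone or a fixed anchor-drug dose plus five library-drug doses (not always all listed) in √10 steps, and values are medians of duplicate plates.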
# NCI-H1355 = tested on: NCI-H1355
# Procedure, shortened: as §1
# HCC-44 = tested on: HCC-44
# Procedure, shortened: as §1
# NCI-H2405 = tested on: NCI-H2405
# Procedure, shortened: as §1
# NCI-H23 = tested on: NCI-H23
# Procedure, shortened: as §1
# UMC-11 = tested on: UMC-11
# Procedure, shortened: as §1
# NCI-H322M = tested on: NCI-H322M
# Procedure, shortened: as §1
# NCI-H1944 = tested on: NCI-H1944
# Procedure, shortened: as §1
# NCI-H1395 = tested on: NCI-H1395
# Procedure, shortened: as §1
# NCI-H1651 = tested on: NCI-H1651
# Procedure, shortened: as §1
# EMC-BAC-2 = tested on: EMC-BAC-2
# Procedure, shortened: as §1
smiles,measurement,setting,value
Clc1ccc(Nc2nnc(Cc3ccncc3)c3ccccc23)cc1 [Vatalanib] + CS(=O)(=O)CCNCc1ccc(-c2ccc3ncnc(Nc4ccc(OCc5cccc(F)c5)c(Cl)c4)c3c2)o1 [Lapatinib] (partner 2 µM),relative viability,LCLC-97TM1; first compound 0.04 µM,0.818
same,relative viability,LCLC-97TM1; first compound 0.1265 µM,0.847
same,relative viability,LCLC-97TM1; first compound 0.4 µM,0.841
same,relative viability,LCLC-97TM1; first compound 1.265 µM,0.897
same,relative viability,LCLC-97TM1; first compound 4 µM,0.971
same,relative viability,NCI-H1355; first compound 0.04 µM,1.02
same,relative viability,NCI-H1355; first compound 0.1265 µM,0.934
same,relative viability,NCI-H1355; first compound 0.4 µM,1.14
same,relative viability,NCI-H1355; first compound 1.265 µM,0.86
same,relative viability,NCI-H1355; first compound 4 µM,0.887
same,relative viability,HCC-44; first compound 0.04 µM,1.01
same,relative viability,HCC-44; first compound 0.1265 µM,0.941
same,relative viability,HCC-44; first compound 0.4 µM,1.02
same,relative viability,HCC-44; first compound 1.265 µM,0.986
same,relative viability,HCC-44; first compound 4 µM,0.986
same,relative viability,NCI-H2405; first compound 0.04 µM,1.04
same,relative viability,NCI-H2405; first compound 0.1265 µM,0.984
same,relative viability,NCI-H2405; first compound 1.265 µM,0.923
same,relative viability,NCI-H2405; first compound 4 µM,1.05
same,relative viability,NCI-H23; first compound 0.04 µM,0.963
same,relative viability,NCI-H23; first compound 0.1265 µM,1.15
same,relative viability,NCI-H23; first compound 0.4 µM,1.3
same,relative viability,NCI-H23; first compound 1.265 µM,0.993
same,relative viability,NCI-H23; first compound 4 µM,1.08
same,relative viability,UMC-11; first compound 0.04 µM,0.924
same,relative viability,UMC-11; first compound 0.1265 µM,0.941
same,relative viability,UMC-11; first compound 0.4 µM,0.976
same,relative viability,UMC-11; first compound 1.265 µM,0.975
same,relative viability,UMC-11; first compound 4 µM,1.13
same,relative viability,NCI-H322M; first compound 0.04 µM,0.493
same,relative viability,NCI-H322M; first compound 0.1265 µM,0.637
same,relative viability,NCI-H322M; first compound 0.4 µM,0.509
same,relative viability,NCI-H322M; first compound 1.265 µM,0.561
same,relative viability,NCI-H322M; first compound 4 µM,0.535
same,relative viability,NCI-H1944; first compound 0.04 µM,0.904
same,relative viability,NCI-H1944; first compound 0.1265 µM,0.635
same,relative viability,NCI-H1944; first compound 0.4 µM,0.909
same,relative viability,NCI-H1944; first compound 1.265 µM,0.804
same,relative viability,NCI-H1944; first compound 4 µM,0.784
same,relative viability,NCI-H1395; first compound 0.04 µM,1.16
same,relative viability,NCI-H1395; first compound 0.1265 µM,0.929
same,relative viability,NCI-H1395; first compound 0.4 µM,0.948
same,relative viability,NCI-H1395; first compound 1.265 µM,1.01
same,relative viability,NCI-H1395; first compound 4 µM,0.864
same,relative viability,NCI-H1651; first compound 0.04 µM,0.921
same,relative viability,NCI-H1651; first compound 0.1265 µM,0.868
same,relative viability,NCI-H1651; first compound 0.4 µM,0.947
same,relative viability,NCI-H1651; first compound 1.265 µM,0.899
same,relative viability,NCI-H1651; first compound 4 µM,0.835
same,relative viability,EMC-BAC-2; first compound 0.04 µM,0.905
same,relative viability,EMC-BAC-2; first compound 0.1265 µM,0.884
same,relative viability,EMC-BAC-2; first compound 0.4 µM,0.919
same,relative viability,EMC-BAC-2; first compound 1.265 µM,0.832
same,relative viability,EMC-BAC-2; first compound 4 µM,0.885
